Test results taken from patent publication US20020049190A1, “Pharmaceutical compositions comprising metal complexes” (priority 1999, published 2002).

Columns and labels:
[1] = test system: murine (RAW264) macrophage cell lines; experiment: In vitro cell culture test: available nitric oxide (nitrite+nitrate) in activated macrophages; type: cell-based; conditions: LPS + interferon γ activated RAW264, 18 hours
Method: Concurrently, test compounds made up in MEM were added at non-cytotoxic concentrations. Control cells as above, which were activated to produce nitric oxide as above, but to which no test compound was added, were used as a measure of the amouint of nitric oxide produced by the cells during the tests. (See […]. Powell, O. J. Vaughan, G. R. Henderson, B. A. Murrer, […]. Bisland, […], Ruthenium complexes as nitric oxide scavengers: a potential therapeutic approach to nitric oxide-mediated diseases, Br. J Pharmacol., 1997, 122, 1441-1449.) Background nitric oxide was assessed by measurement of nitrate and nitrite in cells which were not activated. Cell viability was confirmed by Trypan blue dye exclusion at the end of the incubation period. Nitric oxide was determined by measurement of nitrate and nitrite in the cell supernatant. These anions are the stable end-products of reactions of NO in solution. Such reactions may or may not be catalysed in biological systems. The sum of nitrite and nitrate concentrations gives the total NO production. […] Nitrate was determined by reducing nitrate to nitrite with a bacterial nitrate reductase from Pseudomonas oleovorans and then measuring nitrite with the Griess reaction. In the absence of test compounds nitrite concentration plus nitrate concentration is equal to total nitric oxide production. The effect of test compounds on available nitric oxide (measured as nitrite+nitrate) was determined. The reduction in available nitric oxide compared with the control level may be taken as an indication of the degree of binding of NO by the test compounds.

rat tail artery = experiment: Ex vivo test: perfused pre-contracted rat tail artery, vasoconstriction; conditions: for Vasoconstriction on application of test compound: 10 μM and 100 μM (Example 26 also 1000 μM); for % Vasoconstriction: artery pre-contracted with 6.5 μM phenylephrine; for Reversibility of the vasoconstriction: washout with Krebs solution
Excerpt: In the ex vivo tests, segments of rat tail artery (0.8-1.5 cm) were dissected free from normotensive adult Wistar rats. The arteries were internally perfused with Krebs solution (mM: NaCl 118, KCl 4.7, NaHCO3 25, NaH2PO4 1.15, CaCl22.5, MgCl2 1.1, glucose 5.6 and gassed with 95% O2/5% CO2 to maintain a pH of 7.4) in a constant flow perfusion apparatus. A differential pressure transducer located upstream of the vessel detected changes in back pressure. The rat tail artery preparation was pre-contracted with 6.5 μM phenylephrine to give a physiologically normal pressure of 100-120 mm Hg. The pre-contracted vessels were then perfused with the test compound. The arteries were perfused with Krebs solution between applications of test compound to wash out the test compound.
Pressure changes in the system served to indicate artery vasoconstriction. The vasoconstriction is a direct result of the removal of endogenous nitric oxide (edrf) from the endothelial cells of the rat tail artery.

[2] = In vitro test of NO uptake: manometer pressure and IR spectrum of freeze-dried product; type: binding; conditions: aqueous solution under argon, 20° C.-24° C., NO gas in headspace, one hour
Method: The resulting solution was placed in a three-necked pear-shaped flask and stirred by a magnetic stirrer at constant speed of 1000 rpm, at a constant temperature in the range 20° C.-24° C. A manometer was attached to the flask, and purified, dried nitric oxide gas (known volume in the range 3-5cm^3) was introduced via a septum, using a gas syringe, at atmospheric pressure into the headspace above the reaction solution. The pressure within the flask was recorded periodically over a period of one hour.
A control experiment was carried out according to the above but without any complex present.
On completion of each in vitro test, the reaction solution was freeze-dried. An infrared spectrum of the freeze-dried product provided information on metal-NO bond formation.

[3] = test system: rat P22 carcinosarcoma grown in BD-IX rats; experiment: Tumour growth, vascularisation and plasma nitrite/nitrate in rats bearing P22 carcinosarcoma; type: in vivo; conditions: for Nitrite/nitrate levels at Day 28 / Tumour vascularisation (MVD), Mean Chalkey score: 50 mg/kg daily i.p. Day 10-Day 28; for Nitrite/nitrate levels at Day 28: Griess assay, untreated control 7.75; for Tumour vascularisation (MVD), Mean Chalkey score: anti-CD31 immunostaining, untreated control 13.0; for Tumour growth: 50 mg/kg daily intraperitoneal, Day 10-Day 28, male BD-IX rats
Method: The effect of AMD6245 (Example 113) and AMD6221 (Example 8) on tumour growth was assessed using the rat P22 carcinosarcoma grown in BD-IX rats (Kennovin et al., in Biology of Nitric Oxide, Vol. 4, (S. Moncada, M. Feelisch, R. Busse, and A. E. Higgs, eds.), Portland Press, London, 1994, pp. 473-479). The tumour was implanted subcutaneously on the dorsal surface of male BD-IX rats on Day 0. Tumour growth was measured daily using calipers and tumour volume calculated from the equation […] where X=the short tumour axis and Y=the long tumour axis. Tumours were measurable by Day 10. AMD6245 and AMD6221 were administered daily by intraperitoneal injection at a dose of 50 mg/kg from Day 10-Day 28. Tumour vascularisation (Microvascular Density or MVD) was measured by Chalkley point counting after immunostaining with anti-CD31 antibody (Vermeulen et al., Eur. J. Cancer, 32A, 2474-2484, (1996)). Nitrite/nitrate was measured by the Griess assay (see Table 4). These anions are the stable end products of NO in solution. Nitrate was first reduced to nitrite by […]. The sum of nitrite and nitrate gives the total NO production.

Compound: CC(=O)[O-].CC(=O)[O-].CC(=O)[O-].CC(=O)[O-].[Cl-].[Ru+3].[Ru+3] [Example 14, [Ru2(OAc)4]Cl]
- % Decrease of Available Nitric Oxide ([1]; 100 μM test compound): 47%
- Vasoconstriction on application of test compound (rat tail artery): dose-dependent vasoconstriction
- % Vasoconstriction (rat tail artery; 10 μM): 11%
- % Vasoconstriction (rat tail artery; 100 μM): 40%
- Reversibility of the vasoconstriction (rat tail artery): reversible by washout

Compound: CC(=O)C=C(C)[O-].O=C([O-])CN(CCN(CC(=O)O)CC(=O)O)CC(=O)[O-].[Ru+3] [Example 2, [Ru(H2edta)(acac)]]
- % Decrease of Available Nitric Oxide ([1]; 100 μM test compound): 82%
- Vasoconstriction on application of test compound (rat tail artery): dose-dependent vasoconstriction
- % Vasoconstriction (rat tail artery; 10 μM): 20%
- % Vasoconstriction (rat tail artery; 100 μM): 69%
- Reversibility of the vasoconstriction (rat tail artery): reversible by washout

Compound: K[Ru(hnta)2]½H2O [Example 7]
- Pressure decrease indicating binding of NO to the metal compound [2]: pressure decrease indicated binding of NO

Compound: O.O=C([O-])CN(CCN(CC(=O)O)CC(=O)O)CC(=O)[O-].[Cl-].[Cl-].[K+].[Ru+3] [Example 6, K[Ru(H2edta)Cl2]H2O]
- Pressure decrease indicating binding of NO to the metal compound [2]: pressure decrease indicated binding of NO
- % Decrease of Available Nitric Oxide ([1]; 100 μM test compound): 77%

Compound: O.O=C([O-])CN(CCO)CCN(CC(=O)[O-])CC(=O)[O-].[Cl-].[K+].[Ru+3] [Example 3, K[Ru(hedtra)Cl]H2O]
- Pressure decrease indicating binding of NO to the metal compound [2]: pressure decrease indicated binding of NO
- % Decrease of Available Nitric Oxide ([1]; 100 μM test compound): 42%
- Vasoconstriction on application of test compound (rat tail artery): dose-dependent vasoconstriction
- % Vasoconstriction (rat tail artery; 10 μM): 17%
- % Vasoconstriction (rat tail artery; 100 μM): 59%
- Reversibility of the vasoconstriction (rat tail artery): reversible by washout

Compound: [Ru(NH3)5Cl]Cl2 [Example 15]
- % Decrease of Available Nitric Oxide ([1]; 100 μM test compound): 86%
- Vasoconstriction on application of test compound (rat tail artery): dose-dependent vasoconstriction
- % Vasoconstriction (rat tail artery; 10 μM): 77%
- % Vasoconstriction (rat tail artery; 100 μM): 86%
- Reversibility of the vasoconstriction (rat tail artery): reversible by washout

Compound: [Ru(Hedta)]H2O [AMD6245]
- Nitrite/nitrate levels at Day 28 [3]: 3.88 μmoles/litre plasma
- Tumour vascularisation (MVD), Mean Chalkey score [3]: 3.0
- Tumour growth [3]: inhibited the growth

Compound: O.O=C([O-])c1cccc(C(=O)[O-])n1.O=C([O-])c1cccc(C(=O)[O-])n1.[K+].[Ru+3] [Example 4, K[Ru(dipic)2]H2O]
- Pressure decrease indicating binding of NO to the metal compound [2]: pressure decrease indicated binding of NO

Compound: Cc1occc(=O)c1[O][Ru]([O]c1c(C)occc1=O)[O]c1c(C)occc1=O [Example 26, [Ru(maltol)3]]
- % Decrease of Available Nitric Oxide ([1]; 100 μM test compound): 71%
- Vasoconstriction on application of test compound (rat tail artery): dose-dependent vasoconstriction
- % Vasoconstriction (rat tail artery; 10 μM): 10%
- % Vasoconstriction (rat tail artery; 100 μM): 18%
- % Vasoconstriction (rat tail artery; 1000 μM): 25%
- Reversibility of the vasoconstriction (rat tail artery): reversible by washout

Compound: O.O.O=C([O-])CN(CCN(CC(=O)[O-])CC(=O)O)CC(=O)[O-].[Cl-].[K+].[Ru+3] [Example 1, K[Ru(hedta)Cl]2H2O]
- Pressure decrease indicating binding of NO to the metal compound [2]: pressure decrease indicated binding of NO
- % Decrease of Available Nitric Oxide ([1]; 25 μM test compound): 12%
- % Decrease of Available Nitric Oxide ([1]; 50 μM test compound): 23%
- % Decrease of Available Nitric Oxide ([1]; 100 μM test compound): 75%

Compound: K[Ru(H2dtpa)Cl]H2O [Example 8]
- Nitrite/nitrate levels at Day 28 [3]: 5.09 μmoles/litre plasma
- Tumour vascularisation (MVD), Mean Chalkey score [3]: 5.3
- Tumour growth [3]: inhibited the growth
- Pressure decrease indicating binding of NO to the metal compound [2]: pressure decrease indicated binding of NO
